In one assay the target is T1, Jak2 (Homo sapiens, UniProt O60674).
T1 construct: purchased Upstate/Millipore #14–640
The assay is described as follows: trFRET kinase activity assay, Jak2. The format is biochemical. The settings on record: 1 μM ATP, mean and standard error; read-out: IC50, inhibition of Jak2 enzyme activity. The protocol:
(§1) After 60 min incubation at room temperature, the reaction was quenched by addition of EDTA (final conc. 100 μM) and developed by addition of revelation reagents (final approximate concentrations: 30 mM HEPES pH 7.0, 0.06% BSA, 0.006% Tween-20, 0.24 M KF, 80 ng/mL PT66K (europium-labelled anti-phosphotyrosine antibody, cat #61T66KLB, Cisbio, Bedford, MA) and 3.12 μg/mL SAXL (Phycolink streptavidin-allophycocyanin acceptor, cat #PJ25S, Prozyme, San Leandro, CA)). The developed reaction was incubated in the dark either at 4°C overnight or at room temperature for ~1 h, then read with a time-resolved fluorescence detector (Rubystar, BMG Labtech) using a 337 nm laser for excitation and emission wavelengths of 620 nm and 665 nm. Within the linear range of the assay, this signal is directly related to phosphorylated product and was used to calculate IC50 values. Typically, seven-point inhibitor dilutions (5-fold; from 50 μM to 0.0032 μM) were used. IC50 values were calculated by fitting the following equation: […]
(§2) where [I] is total inhibitor concentration, Y is the percentage of activity (relative to that seen in no-inhibitor control) at a given inhibitor concentration, and Ymax is the maximum activity generated in the absence of inhibitor.
(§3) Purified Jak2 and Jak3 were purchased from Upstate/Millipore (cat numbers #14–640 and #14–629). […]

The next assay addresses T2, Jak1 (Homo sapiens, UniProt P23458).
T2 construct: Jak1 (residues 845–1142) was expressed in Sf9 cells; GST; made in house; host or cells: Sf9 insect cells
The assay is described as follows: trFRET kinase activity assay, Jak1. The format is biochemical. The settings on record: Jak1 (845–1142) GST fusion, 1 μM ATP, mean and standard error; read-out: IC50, inhibition of Jak1 enzyme activity. Here is the method: as §1, §2, §3

A further assay addresses T3, Jak3 (Homo sapiens, UniProt P52333).
T3 construct: purchased Upstate/Millipore #14–629
T3 sequence (P52333 1-1124): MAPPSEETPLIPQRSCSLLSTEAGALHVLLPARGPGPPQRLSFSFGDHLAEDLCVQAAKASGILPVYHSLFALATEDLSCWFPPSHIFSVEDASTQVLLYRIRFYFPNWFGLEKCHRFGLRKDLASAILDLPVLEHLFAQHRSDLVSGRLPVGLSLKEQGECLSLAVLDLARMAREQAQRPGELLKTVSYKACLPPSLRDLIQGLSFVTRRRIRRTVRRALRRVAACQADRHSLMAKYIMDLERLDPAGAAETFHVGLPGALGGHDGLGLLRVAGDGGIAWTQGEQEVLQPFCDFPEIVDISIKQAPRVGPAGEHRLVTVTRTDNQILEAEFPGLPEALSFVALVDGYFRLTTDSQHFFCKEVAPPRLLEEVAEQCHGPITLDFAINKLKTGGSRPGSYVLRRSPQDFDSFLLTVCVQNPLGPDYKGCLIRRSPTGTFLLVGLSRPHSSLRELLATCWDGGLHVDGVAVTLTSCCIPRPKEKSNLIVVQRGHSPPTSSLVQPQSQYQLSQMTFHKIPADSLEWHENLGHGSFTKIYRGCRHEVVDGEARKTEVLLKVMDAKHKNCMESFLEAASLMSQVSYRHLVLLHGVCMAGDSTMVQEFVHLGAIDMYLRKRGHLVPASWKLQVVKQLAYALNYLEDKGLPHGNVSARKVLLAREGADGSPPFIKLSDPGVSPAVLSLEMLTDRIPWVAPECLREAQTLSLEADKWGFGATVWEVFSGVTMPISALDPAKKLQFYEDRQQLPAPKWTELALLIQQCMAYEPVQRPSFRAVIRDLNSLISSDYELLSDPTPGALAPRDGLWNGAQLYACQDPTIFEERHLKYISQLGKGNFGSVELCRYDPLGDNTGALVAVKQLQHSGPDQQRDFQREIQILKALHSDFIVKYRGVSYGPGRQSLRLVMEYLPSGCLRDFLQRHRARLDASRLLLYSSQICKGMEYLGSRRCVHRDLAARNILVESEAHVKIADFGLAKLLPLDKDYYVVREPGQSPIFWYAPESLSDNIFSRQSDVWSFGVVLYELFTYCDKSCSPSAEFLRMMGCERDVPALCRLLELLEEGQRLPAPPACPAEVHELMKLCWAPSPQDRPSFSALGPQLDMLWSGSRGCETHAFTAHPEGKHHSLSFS
The assay is described as follows: trFRET kinase activity assay, Jak3. The format is biochemical. To be noted: 1 μM ATP, mean and standard error; read-out: IC50, inhibition of Jak3 enzyme activity. The protocol: as §1, §2, §3

For assay [1], the system named is Mouse Tyk2 kinase domain (residues 870–1170; Asp1016Ala mutant). The assay is described as follows: Partial proteolysis of Tyk2 kinase domain by thermolysin with and without ligand. The settings on record: 30 μM compound, sum of ~27 and ~29 kDa peaks, 0 to 90 minutes, room temperature. The protocol: Mouse Tyk2 kinase domain (0.25 mg/mL, residues 870–1170; Asp1016Ala mutant) was incubated for 0 to 90 minutes with thermolysin (0.25 mg/mL) at room temperature in 50 mM HEPES pH 6.7, 150 mM NaCl, 5% glycerol, and 2.5 mM CaCl2 in the presence and absence of 30 μM Compound 2. EDTA (final conc 100 mM) was used as stop solution to quench the proteolysis reactions. Samples were separated by use of a Caliper LC90 system and the remaining substrate and product bands were quantitated. Intact (undigested) Tyk2 ran in this system at ~29 kDa. Addition of thermolysin yielded a partial digestion product of ~27 kDa (Additional file 1: Figure 1) within 5 minutes, which was unaffected by addition of Compound 2. Subsequent degradation products were strongly influenced by the presence of Compound 2 (Additional file 1: Figure S1). Therefore the sum of the intensities of the 29 and 27 kDa peaks was used as a measure of inhibitor-dependent resistance to thermolysin digestion. […]
In the absence of inhibitor, a 20 kDa fragment is generated after ~1-5 minutes and subsequently degraded. […] Quantitated values of Tyk2 peaks of ~27 and ~29 kDa during digestion with thermolysin, in the absence or presence of 30 μM Compound 2 were used to monitor overall degradation rates in Figure 2.

In another assay the target is T4, thermolysin (Bacillus thermoproteolyticus, UniProt P00800).
T4 sequence (P00800 233-548): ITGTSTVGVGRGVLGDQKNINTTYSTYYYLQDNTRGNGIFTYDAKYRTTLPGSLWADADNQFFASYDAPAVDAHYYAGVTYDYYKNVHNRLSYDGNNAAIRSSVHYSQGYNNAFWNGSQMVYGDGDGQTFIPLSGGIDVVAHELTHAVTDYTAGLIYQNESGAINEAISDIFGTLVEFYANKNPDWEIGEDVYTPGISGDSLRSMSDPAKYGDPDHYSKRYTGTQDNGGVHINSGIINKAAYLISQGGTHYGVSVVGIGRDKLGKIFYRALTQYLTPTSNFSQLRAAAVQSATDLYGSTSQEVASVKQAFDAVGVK
The assay is described as follows: Digestion of BSA control by thermolysin. The format is biochemical. The settings on record: BSA control digested by thermolysin in the same buffer.

Another assay deals with T5, human Tyk2 (Homo sapiens, UniProt P29597).
T5 construct: human Tyk2 enzyme (residues 880–1185); expressed in Sf9 cells; His tag (cleavable); TEV site per construct name His-Tev-huTyk2 (880–1185)-Flag) (N); Flag (C); made in house; host or cells: Sf9 insect cells
T5 sequence (P29597 880-1185): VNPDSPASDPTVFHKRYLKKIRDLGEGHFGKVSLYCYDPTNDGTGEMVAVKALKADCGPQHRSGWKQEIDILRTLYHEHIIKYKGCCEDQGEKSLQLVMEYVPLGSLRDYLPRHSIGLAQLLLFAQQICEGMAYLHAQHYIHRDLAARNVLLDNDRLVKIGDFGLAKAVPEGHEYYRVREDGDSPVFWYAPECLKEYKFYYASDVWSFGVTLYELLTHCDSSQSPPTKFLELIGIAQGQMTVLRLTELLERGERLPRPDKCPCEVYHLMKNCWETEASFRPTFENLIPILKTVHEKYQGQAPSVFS
The assay is described as follows: trFRET kinase activity assay, Tyk2. The format is biochemical. The settings on record: human Tyk2 (880–1185), 1 μM ATP, mean and standard error; read-out: IC50, inhibition of Tyk2 enzyme activity. Here is the method: as §1, §2

The values that follow come from publication PMC3478977, “Enabling structure-based drug design of Tyk2 through co-crystallization with a stabilizing aminoindazole inhibitor” (BMC Structural Biology, 2012).

T1 sequence (O60674 808-1132 limits assumed): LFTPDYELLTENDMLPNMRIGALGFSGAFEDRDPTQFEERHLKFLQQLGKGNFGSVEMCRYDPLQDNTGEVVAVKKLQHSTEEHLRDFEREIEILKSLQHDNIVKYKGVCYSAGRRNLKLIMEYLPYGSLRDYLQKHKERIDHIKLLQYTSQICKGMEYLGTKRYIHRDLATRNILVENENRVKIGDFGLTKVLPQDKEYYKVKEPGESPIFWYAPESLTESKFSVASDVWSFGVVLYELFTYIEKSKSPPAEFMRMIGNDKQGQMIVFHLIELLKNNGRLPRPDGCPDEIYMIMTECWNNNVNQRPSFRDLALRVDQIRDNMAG
T2 sequence (P23458 845-1142, species assumed): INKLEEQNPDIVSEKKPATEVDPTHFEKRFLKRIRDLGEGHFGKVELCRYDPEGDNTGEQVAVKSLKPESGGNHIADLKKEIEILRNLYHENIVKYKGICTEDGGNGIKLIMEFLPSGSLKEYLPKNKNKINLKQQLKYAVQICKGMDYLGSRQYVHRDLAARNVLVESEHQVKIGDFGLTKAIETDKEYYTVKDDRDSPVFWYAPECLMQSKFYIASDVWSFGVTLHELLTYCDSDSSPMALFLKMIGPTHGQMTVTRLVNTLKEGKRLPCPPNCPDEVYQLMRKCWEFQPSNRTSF

A word on the IC50: it is the point on the concentration scale where inhibition reaches its midpoint. In the case of `Nc1n[nH]c2ccc(-c3ccc(NS(=O)(=O)c4cccc(Cl)c4)cc3)cc12` [Compound 1, N-[4-(3-Amino-1H-indazol-5-yl)-phenyl]-3-chloro-benzenesulfonamide], the IC50 at Jak2 came out at 7 ± 2 nM; at Jak1, 5 ± 0.4 nM; on Jak3, 42 ± 1 nM.
Take `O=C(Nc1n[nH]c2ccc(-c3ccc(NS(=O)(=O)c4cccc(Cl)c4)cc3)cc12)c1ccco1` [Compound 2, Furan-2-carboxylic acid {5-[4-(3-chloro-benzenesulfonylamino)-phenyl]-1 H-indazol-3-yl}amide]: the “reduction of the rate of degradation of the enzyme to smaller forms (<27 kDa) by thermolysin” value in assay [1] stood at 13 fold. Also, the “inhibition of thermolysin protease activity (BSA digestion)” value against thermolysin was “not an inhibitor of thermolysin protease activity”. Besides, the IC50 is 4 ± 1 nM at Jak2, 10 ± 0.1 nM at Jak1, 41 ± 3 nM on Jak3 and less than 3 nM at human Tyk2.
